For test [1], the target named is Human immunodeficiency virus type 1 reverse transcriptase (Human immunodeficiency virus 1) (UniProt Q72547). Kind of test: Inhibition of HIV1 reverse transcriptase at 200 ug/ml.
Test [2] addresses Human immunodeficiency virus type 1 reverse transcriptase (Human immunodeficiency virus 1, UniProt Q72547). Kind of test: Inhibition of HIV1 reverse transcriptase.
In test [3] the test system is Human immunodeficiency virus 2. Kind of test: Inhibition of HIV2 reverse transcriptase at 200 ug/ml.
Test [4] can be described thus: Inhibition of HIV2 reverse transcriptase. Also on record: species or system Human immunodeficiency virus 2.
For test [5], the system named is Human immunodeficiency virus 1. Kind of test: Inhibition of HIV1 reverse transcriptase mutant at 200 ug/ml.
A short description of test [6]: Inhibition of HIV1 reverse transcriptase mutant. Also on record: species or system Human immunodeficiency virus 1.
Test [7] relates to Avian myeloblastosis virus. In words: Inhibition of AMV reverse transcriptase at 200 ug/ml.
A short description of test [8]: Inhibition of AMV reverse transcriptase. Also on record: species or system Avian myeloblastosis virus.
Test [9] can be described thus: Inhibition of DNA polymerase alpha at 200 ug/ml.
Test [10] is described as follows: Inhibition of DNA polymerase alpha.
Test [11] in a line: Inhibition of DNA polymerase beta at 200 ug/ml.
Test [12] is described as follows: Inhibition of DNA polymerase beta.
A short description of test [13]: Inhibition of RNA polymerase at 200 ug/ml.
Test [14] in a line: Inhibition of RNA polymerase.
A short description of test [15]: Inhibition of DNA dependent DNA polymerase at 200 ug/ml.
Test [16] is described as follows: Inhibition of DNA dependent DNA polymerase.
Test [17] is described as follows: Inhibition of RNaseH at 200 ug/ml.
Test [18] can be described thus: Inhibition of RNaseH.

The inhibition is the share of the control response that was lost under treatment. Lower therefore signals a weak effect. One may read the IC50 as the concentration that inhibits the measured activity by half. Read a low IC50 as greater potency. Take `C=C(C)[C@@H]1CC[C@@H]2[C@]3(CC[C@]4(C)[C@@H]([C@H](C)CC/C=C(/C)C(=O)O)CC[C@@]24C)C[C@]13CCC(=O)O` [NIGRANOIC ACID]: the inhibition is 99.4% in test [1]; 76.7% in test [3]; 71% in [5]; 99.2% in test [7]; 46.2% in test [9]; 99.1% in test [11]. Also, the inhibition was found to be 75.4% in [13], 96.7% in test [15] and 6.8% in [17]. Also, the IC50 in [2] was 159 µM; in [4], 356 µM; in test [6] it was 388 µM; in [8], 242 µM; in test [10] it was over 425 µM; in test [12] it was 16.6 µM. Besides, the figures for the IC50 in [14], in test [16] and in test [18] were 188 µM, 40.6 µM and over 425 µM, respectively.

(Values after ChEMBL document CHEMBL1158221, “Nigranoic acid, a triterpenoid from Schisandra sphaerandra that inhibits HIV-1 reverse transcriptase” (J Nat Prod, 1996).)
